Source: PubChem BioAssay (NCI)
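Test compounds were applied to cells in 96-well plates for 48 hours at 5 doses. GI50: concentration for 50% inhibition of growth. At the TGI there is no net growth.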

How the values were obtained:
Assay in all cases: inhibition of tumour cell growth, NCI panel, 48 h
786-0 renal = tested on: 786-0 renal
MALME-3M melanoma = tested on: MALME-3M melanoma
NCI-H23 lung = tested on: NCI-H23 lung
NCI-H226 lung = tested on: NCI-H226 lung
OVCAR-4 ovarian = tested on: OVCAR-4 ovarian
UO-31 renal = tested on: UO-31 renal
MCF7 breast = tested on: MCF7 breast
HCT-15 colon = tested on: HCT-15 colon
TK-10 renal = tested on: TK-10 renal
SK-MEL-28 melanoma = tested on: SK-MEL-28 melanoma
U251 CNS = tested on: U251 CNS
NCI/ADR-RES ovarian = tested on: NCI/ADR-RES ovarian
HOP-62 NSCLC = tested on: HOP-62 NSCLC
UACC-257 melanoma = tested on: UACC-257 melanoma
IGROV1 ovarian = tested on: IGROV1 ovarian
PC-3 prostate = tested on: PC-3 prostate
SK-MEL-2 melanoma = tested on: SK-MEL-2 melanoma
EKVX NSCLC = tested on: EKVX NSCLC
HCT-116 colon = tested on: HCT-116 colon
HOP-92 NSCLC = tested on: HOP-92 NSCLC
BT-549 breast = tested on: BT-549 breast
MOLT-4 leukemia = tested on: MOLT-4 leukemia
SW-620 colon = tested on: SW-620 colon
NCI-H460 lung = tested on: NCI-H460 lung
A549 NSCLC = tested on: A549 NSCLC
RPMI-8226 leukemia = tested on: RPMI-8226 leukemia
MDA-MB-435 = tested on: MDA-MB-435
HCC-2998 colon = tested on: HCC-2998 colon
HS 578T breast = tested on: HS 578T breast
SNB-19 CNS = tested on: SNB-19 CNS
CCRF-CEM leukemia = tested on: CCRF-CEM leukemia
UACC-62 melanoma = tested on: UACC-62 melanoma
CAKI-1 renal = tested on: CAKI-1 renal
SN12C renal = tested on: SN12C renal
T-47D breast = tested on: T-47D breast
SR leukemia = tested on: SR leukemia
LOX IMVI melanoma = tested on: LOX IMVI melanoma
A498 renal = tested on: A498 renal
KM12 colon = tested on: KM12 colon
HL-60(TB) leukemia = tested on: HL-60(TB) leukemia
HT29 colon = tested on: HT29 colon
DU-145 prostate = tested on: DU-145 prostate
M14 melanoma = tested on: M14 melanoma
SK-MEL-5 melanoma = tested on: SK-MEL-5 melanoma
MDA-MB-231 breast = tested on: MDA-MB-231 breast
NCI-H522 lung = tested on: NCI-H522 lung
SF-268 CNS = tested on: SF-268 CNS
RXF 393 renal = tested on: RXF 393 renal
OVCAR-5 ovarian = tested on: OVCAR-5 ovarian
K-562 leukemia = tested on: K-562 leukemia
SF-295 CNS = tested on: SF-295 CNS
SK-OV-3 ovarian = tested on: SK-OV-3 ovarian
OVCAR-8 ovarian = tested on: OVCAR-8 ovarian
SF-539 CNS = tested on: SF-539 CNS
SNB-75 CNS = tested on: SNB-75 CNS
COLO 205 colon = tested on: COLO 205 colon
ACHN renal = tested on: ACHN renal

## CCCCCc1ccc(S(=O)(=O)Nc2cc(-c3csc(NC(=O)CN4CCN(C)CC4)n3)ccc2N2CCN(C)CC2)cc1
786-0 renal
  GI50: 0.826 µM
  TGI: 1.57 µM
MALME-3M melanoma
  GI50: 0.879 µM
  TGI: 1.67 µM
NCI-H23 lung
  GI50: 1.4 µM
  TGI: 4.37 µM
NCI-H226 lung
  GI50: 3 µM
  TGI: 9.35 µM
OVCAR-4 ovarian
  GI50: 1.01 µM
  TGI: 2.34 µM
UO-31 renal
  GI50: 0.818 µM
  TGI: 1.67 µM
MCF7 breast
  GI50: 0.893 µM
  TGI: 1.84 µM
HCT-15 colon
  GI50: 0.733 µM
  TGI: 1.62 µM
TK-10 renal
  GI50: 2.92 µM
  TGI: 7.14 µM
SK-MEL-28 melanoma
  GI50: 0.926 µM
  TGI: 1.69 µM
U251 CNS
  GI50: 0.834 µM
  TGI: 1.65 µM
NCI/ADR-RES ovarian
  GI50: 1.38 µM
  TGI: 3.96 µM
HOP-62 NSCLC
  GI50: 0.954 µM
  TGI: 1.99 µM
UACC-257 melanoma
  GI50: 0.909 µM
  TGI: 1.71 µM
IGROV1 ovarian
  GI50: 1.12 µM
  TGI: 2.61 µM
PC-3 prostate
  GI50: 1.2 µM
  TGI: 3.49 µM
SK-MEL-2 melanoma
  GI50: 0.853 µM
  TGI: 1.61 µM
EKVX NSCLC
  GI50: 1.97 µM
  TGI: 7.47 µM
HCT-116 colon
  GI50: 0.735 µM
  TGI: 1.49 µM
HOP-92 NSCLC
  GI50: 0.909 µM
  TGI: 3.41 µM
BT-549 breast
  GI50: 4.07 µM
  TGI: 11.1 µM
MOLT-4 leukemia
  GI50: 1.12 µM
  TGI: 3.74 µM
SW-620 colon
  GI50: 0.853 µM
  TGI: 1.64 µM
NCI-H460 lung
  GI50: 0.966 µM
  TGI: 1.86 µM
A549 NSCLC
  GI50: 1.25 µM
  TGI: 3.72 µM
RPMI-8226 leukemia
  GI50: 1.03 µM
  TGI: 2.66 µM
MDA-MB-435
  GI50: 0.91 µM
  TGI: 1.76 µM
HCC-2998 colon
  GI50: 0.877 µM
  TGI: 1.78 µM
HS 578T breast
  GI50: 1.05 µM
  TGI: 2.42 µM
SNB-19 CNS
  GI50: 1.38 µM
  TGI: 4.11 µM
CCRF-CEM leukemia
  GI50: 0.792 µM
  TGI: 3.38 µM
UACC-62 melanoma
  GI50: 0.912 µM
  TGI: 1.74 µM
CAKI-1 renal
  GI50: 0.895 µM
  TGI: 1.97 µM
SN12C renal
  GI50: 1.06 µM
  TGI: 2.37 µM
T-47D breast
  GI50: 0.829 µM
  TGI: 1.62 µM
SR leukemia
  GI50: 0.173 µM
  TGI: 0.93 µM
LOX IMVI melanoma
  GI50: 0.842 µM
  TGI: 1.61 µM
A498 renal
  GI50: 2.9 µM
  TGI: 9.03 µM
KM12 colon
  GI50: 1.16 µM
  TGI: 2.67 µM
HL-60(TB) leukemia
  GI50: 1 µM
  TGI: 2.35 µM
HT29 colon
  GI50: 0.872 µM
  TGI: 1.81 µM
DU-145 prostate
  GI50: 1.52 µM
  TGI: 4.64 µM
M14 melanoma
  GI50: 0.895 µM
  TGI: 1.71 µM
SK-MEL-5 melanoma
  GI50: 0.9 µM
  TGI: 1.64 µM
MDA-MB-231 breast
  GI50: 0.913 µM
  TGI: 1.83 µM
NCI-H522 lung
  GI50: 0.909 µM
  TGI: 1.72 µM
SF-268 CNS
  GI50: 0.941 µM
  TGI: 2.01 µM
RXF 393 renal
  GI50: 0.792 µM
  TGI: 1.59 µM
OVCAR-5 ovarian
  GI50: 1.25 µM
  TGI: 3.31 µM
K-562 leukemia
  GI50: 0.166 µM
  TGI: 5.53 µM
SF-295 CNS
  GI50: 0.956 µM
  TGI: 1.93 µM
SK-OV-3 ovarian
  GI50: 1.11 µM
  TGI: 2.67 µM
OVCAR-8 ovarian
  GI50: 0.966 µM
  TGI: 1.95 µM
SF-539 CNS
  GI50: 0.86 µM
  TGI: 1.62 µM
SNB-75 CNS
  GI50: 2.11 µM
  TGI: 4.48 µM
COLO 205 colon
  GI50: 0.924 µM
  TGI: 1.86 µM
ACHN renal
  GI50: 1.14 µM
  TGI: 2.64 µM
